The results in this text go back to patent US7745483B2, “2-Halofuryl-thienyl-3-carboxamides” (Bayer CropScience AG, priority 2004, dated 2010).

SMILES strings stand for the structures.

What all share (assay type): in vivo
In experiment [1] the test system is Sphaerotheca fuliginea. Put plainly: Sphaerotheca test (cucumber)/protective. The note with it: Podosphaera fuliginea, 168 h, protective, application rate 100 g/ha, evaluation 7 days after inoculation, read-out: Efficacy in %. As for the experimental part:
(§1) [table] To produce a suitable preparation of active compound, one part by weight of active compound is mixed with the stated amounts of solvent and emulsifier, and the concentrate is diluted with water to the desired concentration. To test for protective activity, young plants are sprayed with the preparation of active compound at the stated application rate. After the spray coating has dried on, the plants are inoculated with an aqueous spore suspension of Sphaerotheca fuliginea. The plants are then placed in a greenhouse at about 23° C. and a relative atmospheric humidity of about 70%. Evaluation is carried out 7 days after the inoculation. 0% means an efficacy which corresponds to that of the control, whereas an efficacy of 100% means that no infection is observed.

The subject of experiment [2] is Venturia inaequalis. Put plainly: Venturia test (apple)/protective. The following applies: 240 h, protective, application rate 100 g/ha, evaluation 10 days after inoculation, read-out: Efficacy in %. As for the experimental part:
as §1, with “amount” for “amounts”, “conidia” for “spore”, “the apple scab pathogen Venturia inaequalis and then remain in an incubation cabin at about 20° C. and 100% relative atmospheric humidity for 1 day.” for “Sphaerotheca fuliginea.”, “21°” for “23°”, “90%.” for “70%.”, “10” for “7”

Experiment [3] relates to Botrytis cinerea. As to the kind of experiment: Botrytis test (bean)/protective. The following applies: 48 h, protective, application rate 500 g/ha, evaluation 2 days after inoculation, read-out: Efficacy in %. The procedure:
[table] To produce a suitable preparation of active compound, 1 part by weight of active compound was mixed with the stated amounts of solvent and emulsifier, and the concentrate was diluted with water to the desired concentration. To test for protective activity, young plants are sprayed with the preparation of active compound at the stated application rate. After the spray coating has dried on, 2 small pieces of agar colonized by Botrytis cinerea are placed onto each leaf. The inoculated plants are placed in a dark chamber at about 20° C. and 100% relative atmospheric humidity. The size of the infected areas on the leaves is evaluated 2 days after the inoculation. 0% means an efficacy which corresponds to that of the control, whereas an efficacy of 100% means that no infection is observed.

On to `CC(C)CC(C)c1ccccc1NC(=O)c1ccsc1I` (centres unmarked) [drawing 152], for which the pest or weed control at 100 g/ha in experiment [1] is 98%.

As for `CC(CC(C)(C)C)c1ccccc1NC(=O)c1ccoc1I` (centres unmarked) [drawing 153], the pest or weed control at 100 g/ha in experiment [1] is 98%. Still for that read-out and setting: the value for `CC(CC(C)(C)C)c1ccccc1NC(=O)c1ccsc1I` (centres unmarked) [drawing 154] was 100%; that for `O=C(Nc1ccccc1-c1ccc(C(F)(F)F)cc1Cl)c1ccsc1I` [drawing 155] was 100%; that for `O=C(Nc1ccncc1-c1ccc(Cl)c(Cl)c1)c1ccsc1I` [drawing 156] was 100%. Same read-out and setting: the value for `O=C(Nc1ccccc1-c1ccc(Br)cc1Cl)c1ccsc1I` [drawing 157] was 100%; that for `O=C(Nc1ccccc1-c1ccc(Br)c(F)c1)c1ccsc1I` [drawing 158] was 100%.

Consider `O=C(Nc1ccccc1-c1ccc(Br)c(Cl)c1)c1ccsc1I` [drawing 159], for which the pest or weed control at 100 g/ha in experiment [1] turned out to be 100%.

Consider `O=C(Nc1ccccc1-c1cccc(Cl)c1Cl)c1ccsc1I` [drawing 160], for which the pest or weed control at 100 g/ha in experiment [1] worked out at 100%. On the same count and under the same terms, the value for `O=C(Nc1ccccc1-c1cccc(Cl)c1F)c1ccsc1I` [drawing 161] was 100%. In the case of `CC(C)CC(C)c1ccccc1NC(=O)c1ccsc1I` (centres unmarked) [drawing 185], the pest or weed control at 100 g/ha in experiment [2] was determined as 100%. Turning to `CC(CC(C)(C)C)c1ccccc1NC(=O)c1ccoc1I` (centres unmarked) [drawing 186], in experiment [2], the pest or weed control at 100 g/ha was found to be 94%. Same read-out and setting: the value for `CC(CC(C)(C)C)c1ccccc1NC(=O)c1ccsc1I` (centres unmarked) [drawing 187] was 100%; that for `C[Si](C)(C)CCc1ccccc1NC(=O)c1ccsc1I` [drawing 188] was 100%. The same measure, in the same setting: the value for `O=C(Nc1ccccc1-c1ccc(C(F)(F)F)cc1Cl)c1ccsc1I` [drawing 189] was 97%; that for `O=C(Nc1ccncc1-c1ccc(Cl)c(Cl)c1)c1ccsc1I` [drawing 190] was 98%; that for `O=C(Nc1ccccc1-c1ccc(Br)cc1Cl)c1ccsc1I` [drawing 191] was 100%. On to `O=C(Nc1ccccc1-c1ccc(Br)c(F)c1)c1ccsc1I` [drawing 192], for which the pest or weed control at 100 g/ha in experiment [2] is 100%. Still for that read-out and setting: the value for `O=C(Nc1ccccc1-c1ccc(Br)c(Cl)c1)c1ccsc1I` [drawing 193] was 100%; that for `O=C(Nc1ccccc1-c1cccc(Cl)c1Cl)c1ccsc1I` [drawing 194] was 98%. Still for that read-out and setting: the value for `O=C(Nc1ccccc1-c1cccc(Cl)c1F)c1ccsc1I` [drawing 195] was 89%; that for `O=C(Nc1ccc(F)cc1-c1cccc(Cl)c1F)c1ccsc1I` [drawing 196] was 100%.

For `CC(C)(C)CCc1cc(F)ccc1NC(=O)c1ccsc1I` [drawing 197], the pest or weed control at 100 g/ha in experiment [2] was 100%. On the same count and under the same terms, the value for `O=C(Nc1ccccc1-c1ccc(Cl)cc1)c1ccoc1I` [drawing 198] was 100%; that for `O=C(Nc1ccccc1-c1ccc(Br)cc1)c1ccoc1I` [drawing 199] was 100%.

In the case of `O=C(Nc1ccccc1-c1ccc(Cl)c(Cl)c1)c1ccoc1I` [drawing 200], in experiment [2], the pest or weed control at 100 g/ha turned out to be 99%. Turning to `O=C(Nc1ccccc1-c1ccc(Cl)c(F)c1)c1ccoc1I` [drawing 201], the pest or weed control at 100 g/ha in experiment [2] is 100%. The same measure, in the same setting: the value for `O=C(Nc1ccccc1-c1ccc(Cl)cc1)c1ccsc1I` [drawing 202] was 100%. In the case of `O=C(Nc1ccccc1-c1ccc(Br)cc1)c1ccsc1I` [drawing 203], the pest or weed control at 100 g/ha in experiment [2] was found to be 91%.

In the case of `O=C(Nc1ccccc1-c1ccc(Cl)c(Cl)c1)c1ccsc1I` [drawing 204], the pest or weed control at 100 g/ha in experiment [2] is 100%. Same read-out and setting: the value for `O=C(Nc1ccccc1-c1ccc(Cl)c(F)c1)c1ccsc1I` [drawing 205] was 100%.

With `CC(C[Si](C)(C)C)c1ccccc1NC(=O)c1ccoc1I` (centres unmarked) [drawing 206], the pest or weed control at 100 g/ha in experiment [2] was 99%. On the same count and under the same terms, the value for `CC(C[Si](C)(C)C)c1ccccc1NC(=O)c1ccsc1I` (centres unmarked) [drawing 207] was 100%. Same read-out and setting: the value for `O=C(Nc1ccccc1-c1ccc(C(F)(F)F)cc1)c1ccsc1I` [drawing 208] was 99%; that for `O=C(Nc1ccc(F)cc1-c1ccc(Cl)c(Cl)c1)c1ccsc1I` [drawing 209] was 100%. On the same count and under the same terms, the value for `Cc1ccc(-c2ccccc2NC(=O)c2ccsc2I)cc1F` [drawing 210] was 100%; that for `CC1CC(C)(C)c2cccc(NC(=O)c3ccsc3I)c21` (centres unmarked) [drawing 211] was 100%; that for `CC(C)CC(C)c1cc(F)ccc1NC(=O)c1ccsc1I` (centres unmarked) [drawing 212] was 100%.

In the case of `CO/N=C/c1ccc(-c2ccccc2NC(=O)c2ccsc2I)cc1F` [drawing 213], the pest or weed control at 100 g/ha in experiment [2] was found to be 100%. For `CC(C)CC(C)c1sccc1NC(=O)c1ccsc1I` (centres unmarked) [drawing 214], in experiment [2], the pest or weed control at 100 g/ha came to 100%.

For the compound `CC(C)CC(C)c1ccccc1NC(=O)c1ccsc1Br` (centres unmarked) [drawing 215], the pest or weed control at 100 g/ha in experiment [2] came out at 100%. Turning to `CC(CC(C)(C)C)c1ccccc1NC(=O)c1ccsc1Br` (centres unmarked) [drawing 216], the pest or weed control at 100 g/ha in experiment [2] was found to be 98%. The same measure, in the same setting: the value for `O=C(Nc1ccccc1-c1ccc(Cl)cc1)c1ccsc1Br` [drawing 217] was 100%; that for `O=C(Nc1ccccc1-c1ccc(Cl)c(Cl)c1)c1ccsc1Br` [drawing 218] was 100%. As for `O=C(Nc1ccccc1-c1ccc(Cl)c(F)c1)c1ccsc1Br` [drawing 219], the pest or weed control at 100 g/ha in experiment [2] worked out at 100%.

As to `O=C(Nc1ccccc1-c1ccc(F)c(Cl)c1)c1ccsc1I` [drawing 220], in experiment [2], the pest or weed control at 100 g/ha came out at 100%. On the same count and under the same terms, the value for `C[Si](C)(C)CCc1sccc1NC(=O)c1ccsc1I` [drawing 221] was 100%. On to `O=C(Nc1ccccc1-c1ccc(Cl)c(F)c1)c1ccoc1I` [drawing 239], for which the pest or weed control at 500 g/ha in experiment [3] turned out to be 100%. Same read-out and setting: the value for `O=C(Nc1ccccc1-c1ccc(Cl)cc1)c1ccsc1I` [drawing 240] was 100%.

Regarding `O=C(Nc1ccccc1-c1ccc(Br)cc1)c1ccsc1I` [drawing 241], the pest or weed control at 500 g/ha in experiment [3] worked out at 100%.

In the case of `O=C(Nc1ccccc1-c1ccc(Cl)c(Cl)c1)c1ccsc1I` [drawing 242], the pest or weed control at 500 g/ha in experiment [3] came out at 100%. Same read-out and setting: the value for `O=C(Nc1ccccc1-c1ccc(Cl)c(F)c1)c1ccsc1I` [drawing 243] was 100%. In the case of `CC(C[Si](C)(C)C)c1ccccc1NC(=O)c1ccoc1I` (centres unmarked) [drawing 244], in experiment [3], the pest or weed control at 500 g/ha is 100%. Still for that read-out and setting: the value for `CC(C[Si](C)(C)C)c1ccccc1NC(=O)c1ccsc1I` (centres unmarked) [drawing 245] was 100%. The same measure, in the same setting: the value for `O=C(Nc1ccccc1-c1ccc(C(F)(F)F)cc1)c1ccsc1I` [drawing 246] was 100%; that for `O=C(Nc1ccc(F)cc1-c1ccc(Cl)c(Cl)c1)c1ccsc1I` [drawing 247] was 100%; that for `Cc1ccc(-c2ccccc2NC(=O)c2ccsc2I)cc1F` [drawing 248] was 100%. Regarding `CC1CC(C)(C)c2cccc(NC(=O)c3ccsc3I)c21` (centres unmarked) [drawing 249], the pest or weed control at 500 g/ha in experiment [3] worked out at 100%.

`CC(C)CC(C)c1cc(F)ccc1NC(=O)c1ccsc1I` (centres unmarked) [drawing 250]: in experiment [3], the pest or weed control at 500 g/ha was determined as 100%. For `CO/N=C/c1ccc(-c2ccccc2NC(=O)c2ccsc2I)cc1F` [drawing 251], in experiment [3], the pest or weed control at 500 g/ha turned out to be 100%. Same read-out and setting: the value for `CC(C)CC(C)c1sccc1NC(=O)c1ccsc1I` (centres unmarked) [drawing 252] was 100%. Same read-out and setting: the value for `CC(C)CC(C)c1ccccc1NC(=O)c1ccsc1Br` (centres unmarked) [drawing 253] was 100%.

Consider `CC(CC(C)(C)C)c1ccccc1NC(=O)c1ccsc1Br` (centres unmarked) [drawing 254], for which, in experiment [3], the pest or weed control at 500 g/ha was found to be 100%. With `O=C(Nc1ccccc1-c1ccc(Cl)cc1)c1ccsc1Br` [drawing 255], the pest or weed control at 500 g/ha in experiment [3] turned out to be 100%. The same measure, in the same setting: the value for `O=C(Nc1ccccc1-c1ccc(Cl)c(Cl)c1)c1ccsc1Br` [drawing 256] was 100%; that for `O=C(Nc1ccccc1-c1ccc(Cl)c(F)c1)c1ccsc1Br` [drawing 257] was 100%; that for `O=C(Nc1ccccc1-c1ccc(F)c(Cl)c1)c1ccsc1I` [drawing 258] was 99%. Same read-out and setting: the value for `C[Si](C)(C)CCc1sccc1NC(=O)c1ccsc1I` [drawing 259] was 100%.
